In patent US20250186374A1 (priority 2022, published 2025):
Entries after “also recorded” stand apart in the source; their conditions may differ. Read-outs that look alike come from different tables or passages of the source.

How the values were obtained:
SARS-CoV-2 [1] = test: microbe, parasite or virus in culture; format: cell-based
SARS-CoV-2 3CLpro [2] = target: T1, SARS-CoV-2 3CLpro (Severe acute respiratory syndrome coronavirus 2, UniProt P0DTD1); test: Surface plasmon resonance binding to immobilized 3CLpro; conditions: 0.164-100 μM, 25° C.
SARS-CoV-2 [3] = test: Clinical examples 1-3, treatment of COVID-19 / SARS-CoV-2 positive subjects; format: in vivo
Source text: Example 1: The following example describes treatment strategies for COVID-19 involving oral administration of an antiviral composition.
A physician diagnoses a patient with COVID-19. The patient is experiencing mild symptoms. […] The patient is to take the tablet once a day for one week. The patient is highly responsive and their symptoms go away after 2 days.
Example 2: The following example describes treatment strategies for intravenous administration of an antiviral composition.
A diabetic patient is hospitalized with severe COVID-19. […] The medication is added to an IV solution and delivered intravenously, twice a day for three days. The patient is highly responsive and experiences a reduction in their symptoms during the initial treatment period.
A subject tests positive for SARS-CoV-2 but is asymptomatic. […] The subject sprays the inside of their nose once a day for 5 days. The subject remains asymptomatic.

SARS-CoV-2 3CLpro [4] = target: T1, SARS-CoV-2 3CLpro; test: Enzyme kinetics, Lineweaver-Burk plots; format: biochemical; conditions: for Inhibition Type: Michaelis-Menten kinetics; for effect on Vmax of 3CLpro: compared to the DMSO control, 5 μM or 10 μM inhibitor
SARS-CoV-2 3CLpro [5] = target: T1, SARS-CoV-2 3CLpro; test: Inhibition of cleavage of TriPro substrate protein, SDS-PAGE; format: biochemical; conditions: 0.8 μM 3CLpro
SARS-CoV-2 3CLpro [6] = target: T1, SARS-CoV-2 3CLpro; test: biochemical; format: biochemical; conditions: for inhibitory activity in library screen: compound concentration of 100 μM
SARS-CoV-2 3CLpro [7] = target: T1, SARS-CoV-2 3CLpro; test: Microscale thermophoresis ligand binding; conditions: 10 nM labeled 3CLpro; read-out: KD (MST)
Source text: Monolith NT.115 Microscale Thermophoresis (MST) instrument (NanoTemper Technologies) was used for this assay. Monolith protein labeling kit RED-NHS was purchased from NanoTemper Technologies. Briefly, 3CLpro protein was labeled using RED-NHS labelling kit (NanoTemper) following the manufacturer's instructions. […] The assay was read in 20% excitation power and medium MST power.

SARS-CoV = conditions: cited from earlier work
SARS-CoV-2 3CLpro [8] = target: T1, SARS-CoV-2 3CLpro; conditions: at 50 μM concentration; cited from earlier work
SARS-CoV 3CLpro = SARS-CoV 3CLpro (Severe acute respiratory syndrome coronavirus, UniProt P0C6X7); conditions: cited from earlier work
[9] = Severe acute respiratory syndrome coronavirus 2, Table 2 and text, SARS-CoV-2 viral replication, cell-based antiviral assay
[10] = Severe acute respiratory syndrome coronavirus 2, 48 h
[11] = FRET peptide substrate, 200 nM 3CLpro, read-out: SARS-CoV-2 3CLpro IC50

## CC(C)(C)NC(=O)N[C@H](C(=O)N1C[C@H]2[C@@H]([C@H]1C(=O)NC(CC1CCC1)C(=O)C(N)=O)C2(C)C)C(C)(C)C (some centres unmarked) [Boceprevir, boceprevir, reference compound]
SARS-CoV-2 [1]; [9]
  EC50: 15.6 µM

## O=C(Nc1ccc([N+](=O)[O-])cc1Cl)c1cccc([N+](=O)[O-])c1O [JMX0207]
In vitro
  CC50 at 48 h: 13.2 µM
SARS-CoV-2 [1]; [10]
  EC50: 1.22 µM

## CC(C)[C@H](NC(=O)c1cc(Cl)ccc1O)C(=O)Nc1ccc([N+](=O)[O-])cc1Cl [JMX0281]
In vitro
  CC50 at 48 h: 8.32 µM
SARS-CoV-2 [1]; [10]
  EC50: 2.08 µM

## O=C(NC(Cc1ccccc1)C(=O)Nc1ccc([N+](=O)[O-])cc1Cl)c1cc(Cl)ccc1O (centres unmarked) [JMX0285]
In vitro
  CC50 at 48 h: 6.13 µM
SARS-CoV-2 [1]; [10]
  EC50: 3.03 µM

## Cl.NCCOc1ccc(Cl)cc1C(=O)NCC(=O)Nc1ccc([N+](=O)[O-])cc1Cl [JMX0286, 2-(2-Aminoethoxy)-5-chloro-N-(2-((2-chloro-4-nitrophenyl)amino)-2-oxoethyl)benzamide hydrochloride]
SARS-CoV-2 3CLpro [2]; read-out: KD (SPR, steady-state affinity model)
  Kd: 9.8 µM
SARS-CoV-2 [3]; Example 1: oral tablet 50 mg once a day for one week
  side effects: No side effects are reported
SARS-CoV-2 [3]; Example 1: oral tablet 50 mg once a day for one week, mild COVID-19
  clinical outcome: completely recovers
SARS-CoV-2 [1]; [10]
  EC50: 2.25 µM
SARS-CoV-2 3CLpro [4]; hydrochloride
  Inhibition Type: non-competitive inhibition mechanism
SARS-CoV-2 3CLpro [4]
  effect on Vmax of 3CLpro: reduced the Vmax values
SARS-CoV-2 3CLpro [5]; hydrochloride
  inhibition of cleavage of the TriPro substrate protein: inhibited the cleavage of the TriPro substrate protein in a dose dependent manner; also recorded: inhibit the digestion of protein substrates in a dose dependent manner
SARS-CoV-2 3CLpro [6]; [11]
  IC50: 4.8 µM
SARS-CoV-2 3CLpro [6]
  inhibitory activity in library screen: prominent inhibitory activity
A549 and Vero E6 cells; Table 1, cell line not given
  CC50: 3.78 µM

## CC(C)(C)OC(=O)NCCOc1ccc(Cl)cc1C(=O)NCC(=O)Nc1ccc([N+](=O)[O-])cc1Cl [JMX0301, tert-Butyl(2-(4-chloro-2-((2-((2-chloro-4-nitrophenyl)amino)-2-oxoethyl)carbamoyl)phenoxy)ethyl)carbamate]
SARS-CoV-2 3CLpro [2]
  KD (SPR, steady-state affinity model): did not show binding
SARS-CoV-2 [3]; Example 2: 100 mg with remdesivir 100 mg intravenously twice a day for three days, then 50 mg tablet, severe COVID-19
  clinical outcome: completely recovers
SARS-CoV-2 [3]; Example 2: intravenous with remdesivir, then tablet
  side effects: No side effects are reported
SARS-CoV-2 [1]; Table 2, SARS-CoV-2 viral replication, cell-based antiviral assay
  EC50 (μM): No Dose
SARS-CoV-2 3CLpro [4]
  Inhibition Type: non-competitive inhibition mechanism
  effect on Vmax of 3CLpro: reduced the Vmax values
SARS-CoV-2 3CLpro [7]
  Kd: 34 µM
SARS-CoV-2 3CLpro [5]
  inhibition of cleavage of the TriPro substrate protein: inhibited the cleavage of the TriPro substrate protein in a dose dependent manner; also recorded: inhibit the digestion of protein substrates in a dose dependent manner
SARS-CoV-2 3CLpro [6]; [11]
  IC50: 4.5 µM
SARS-CoV-2 3CLpro [6]
  inhibitory activity in library screen: prominent inhibitory activity

## O=C(Nc1ccc(C(F)(F)F)cc1Cl)c1cc(Cl)ccc1O [JMX0308]
SARS-CoV-2 [1]
  EC50 value (strong inhibition of SARS-CoV-2 virus): sub-micromolar range
SARS-CoV-2 [1]; [10]
  EC50: 0.806 µM

## O=C(Nc1ccc(C(F)(F)F)cc1Cl)c1cccc([N+](=O)[O-])c1O [JMX0310, N-(2-Chloro-4-(trifluoromethyl)phenyl)-2-hydroxy-3-nitrobenzamide]
SARS-CoV-2 [1]; [10]
  EC50: 2.41 µM
A549 and Vero E6 cells; Table 1, cell line not given
  CC50: 10.1 µM

## O=C(Nc1cc(F)cc(C(F)(F)F)c1)c1cc(Cl)ccc1O [JMX0312]
In vitro
  CC50 at 48 h: 1.97 µM
SARS-CoV-2 [1]; [10]
  EC50: 1.13 µM

## O=C(Nc1cc(F)cc(C(F)(F)F)c1)c1cccc([N+](=O)[O-])c1O [JMX0317, N-(3-Fluoro-5-(trifluoromethyl)phenyl)-2-hydroxy-3-nitrobenzamide]
SARS-CoV-2 [1]; [10]
  EC50: 4.03 µM
A549 and Vero E6 cells; Table 1, cell line not given
  CC50: 11.7 µM

## O=C(Nc1ccc(F)c(F)c1)c1cc(Cl)ccc1O [JMX0321]
In vitro
  CC50 at 48 h: 3.76 µM
SARS-CoV-2 [1]; [10]
  EC50: 1.19 µM

## O=C(Nc1cc(C(F)(F)F)cc(C(F)(F)F)c1)c1cc(Cl)ccc1O [JMX0325]
In vitro
  CC50 at 48 h: 1.81 µM
SARS-CoV-2 [1]
  EC50 value (strong inhibition of SARS-CoV-2 virus): sub-micromolar range
SARS-CoV-2 [1]; [10]
  EC50: 0.123 µM

## O=C(Nc1cc(C(F)(F)F)cc(C(F)(F)F)c1)c1cccc([N+](=O)[O-])c1O [JMX0330, N-(3,5-Bis(trifluoromethyl)phenyl)-2-hydroxy-3-nitrobenzamide]
SARS-CoV-2 [1]
  EC50 value (strong inhibition of SARS-CoV-2 virus): sub-micromolar range
SARS-CoV-2 [1]; [10]
  EC50: 0.498 µM
A549 and Vero E6 cells; Table 1, cell line not given
  CC50: 10.2 µM

## CC1(Nc2ccc(NC(=O)c3cc(Cl)ccc3O)c(Cl)c2)CCCC1 [JMX0510-2]
SARS-CoV-2 [1]
  EC50: 4.88 µM
A549 and Vero E6 cells
  CC50: 11.5 µM

## CC(C)C[C@H](NC(=O)c1cc(Cl)ccc1O)C(=O)Nc1ccc([N+](=O)[O-])cc1Cl [JMX0671]
In vitro
  CC50 at 48 h: 8.03 µM
SARS-CoV-2 [1]; [10]
  EC50: 1.56 µM

## CC(C)[C@H](NC(=O)c1cc(Cl)ccc1O)C(=O)Nc1ccc(C(F)(F)F)cc1Cl [JMX0672]
In vitro
  CC50 at 48 h: 8.34 µM
SARS-CoV-2 [1]; [10]
  EC50: 1.92 µM

## CCC(C)[C@H](NC(=O)c1cc(Cl)ccc1O)C(=O)Nc1ccc([N+](=O)[O-])cc1Cl (some centres unmarked) [JMX0673]
In vitro
  CC50 at 48 h: 5.2 µM
SARS-CoV-2 [1]; [10]
  EC50: 1.74 µM

## C[C@H](NC(=O)c1cc(Cl)ccc1O)C(=O)Nc1ccc([N+](=O)[O-])cc1Cl [JMX0674]
In vitro
  CC50 at 48 h: > 10 µM
SARS-CoV-2 [1]; [10]
  EC50: 9.75 µM

## CC(C)[C@H](NC(=O)c1cc(Cl)ccc1O)C(=O)Nc1cc(C(F)(F)F)cc(C(F)(F)F)c1 [JMX0679]
In vitro
  CC50 at 48 h: 7.14 µM
SARS-CoV-2 [1]; [10]
  EC50: 2.51 µM

## CC(C)[C@H](NC(=O)c1cc(Cl)ccc1O)C(=O)Nc1cc(F)cc(C(F)(F)F)c1 [JMX0680]
In vitro
  CC50 at 48 h: 10.1 µM
SARS-CoV-2 [1]; [10]
  EC50: 4.57 µM

## CC(C)[C@H](NC(=O)c1cc(Cl)ccc1O)C(=O)Nc1ccc(F)c(F)c1 [JMX0681]
In vitro
  CC50 at 48 h: > 10 µM
SARS-CoV-2 [1]; [10]
  EC50: 9.75 µM

## O=C(Nc1cc(F)cc(C(F)(F)F)c1)c1ccc(Cl)cc1O [JMX0887]
In vitro
  CC50 at 48 h: 4.18 µM
SARS-CoV-2 [1]
  EC50 value (strong inhibition of SARS-CoV-2 virus): sub-micromolar range
SARS-CoV-2 [1]; [10]
  EC50: 0.92 µM

## O=C(Nc1ccc([N+](=O)[O-])cc1)c1cc(Cl)ccc1O [JMX0895]
SARS-CoV-2 [1]
  EC50 value (strong inhibition of SARS-CoV-2 virus): sub-micromolar range
SARS-CoV-2 [1]; [10]
  EC50: 0.665 µM

## O=C(Nc1ccc([N+](=O)[O-])c(Cl)c1)c1cc(Cl)ccc1O [JMX0941]
SARS-CoV-2 [3]; Example 3: intranasal spray 10 mg once a day for 5 days
  side effects: No side effects are reported
SARS-CoV-2 [3]; Example 3: intranasal spray 10 mg once a day for 5 days, asymptomatic subject
  SARS-CoV-2 test on the 6th day: negative for SARS-CoV-2
SARS-CoV-2 [1]; [10]
  EC50: 1.75 µM
SARS-CoV-2 [1]; [9]
  EC50: 1.7 µM
SARS-CoV-2 3CLpro [4]
  Inhibition Type: non-competitive inhibition mechanism
  effect on Vmax of 3CLpro: reduced the Vmax values
SARS-CoV-2 3CLpro [5]
  inhibition of cleavage of the TriPro substrate protein: inhibited the cleavage of the TriPro substrate protein in a dose dependent manner; also recorded: inhibit the digestion of protein substrates in a dose dependent manner
SARS-CoV-2 3CLpro [6]
  inhibitory activity in library screen: prominent inhibitory activity

## O=C(Nc1ccc([N+](=O)[O-])cc1Cl)c1cc(Cl)ccc1O [Niclosamide, niclosamide]
SARS-CoV; Vero E6 cells, read-out: EC50, SARS-CoV replication
  EC50: < 0.1 µM
SARS-CoV; as low as
  concentration suppressing the cytopathic effect (CPE) of SARS-CoV: 1 µM
SARS-CoV-2 3CLpro [6]
  IC50: > 50 µM
SARS-CoV-2 3CLpro [8]
  inhibition of the SARS-CoV-2 3CLpro: does not inhibit
SARS-CoV 3CLpro
  inhibitory activity against SARS-CoV 3CLpro: no obvious inhibitory activity
